Source: ChEMBL document CHEMBL3779842, “Isopimarane diterpenoids from Kaempferia pulchra rhizomes collected in Myanmar and their Vpr inhibitory activity” (Bioorg Med Chem Lett, 2016)
The source made the active and inactive calls. The calls are words filed in the database; no cut-off is given here.

Legend:
Format in all cases: cell-based
Settings in all cases: Human immunodeficiency virus 1
TREx-HeLa-Vpr [1] = test: Inhibition of -c-myc-His6 tagged HIV1 NL4-3 Vpr expressed in human TREx-HeLa-Vpr cells assessed as cell viability at 6.25 uM after 48 hrs in presence of tetracycline by WST8 assay
TREx-HeLa-Vpr [2] = test: Inhibition of -c-myc-His6 tagged HIV1 NL4-3 Vpr expressed in human TREx-HeLa-Vpr cells assessed as cell viability at 3.12 uM after 48 hrs in presence of tetracycline by WST8 assay
TREx-HeLa-Vpr [3] = test: Inhibition of -c-myc-His6 tagged HIV1 NL4-3 Vpr expressed in human TREx-HeLa-Vpr cells assessed as cell viability at 1.56 uM after 48 hrs in presence of tetracycline by WST8 assay
TREx-HeLa-Vpr [4] = test: Inhibition of -c-myc-His6 tagged HIV1 NL4-3 Vpr expressed in human TREx-HeLa-Vpr cells assessed as cell viability at 5 uM after 48 hrs in presence of tetracycline by WST8 assay

Structure (SMILES) | inhibition (TREx-HeLa-Vpr [1]) | inhibition (TREx-HeLa-Vpr [2]) | inhibition (TREx-HeLa-Vpr [3]) | Cell viability (TREx-HeLa-Vpr [1]) | Activity (TREx-HeLa-Vpr [2]) | Activity (TREx-HeLa-Vpr [3]) | Activity (TREx-HeLa-Vpr [4])
C=C[C@@]1(C)C=C2CC[C@@H]3C(C)(C)C[C@@H](O)C[C@@]3(C)[C@@H]2CC1 | inactive | inactive | inactive |  |  |  | 
C=C[C@@]1(C)CCC2=C(C(=O)C[C@H]3C(C)(C)CCC[C@]23C)[C@H]1O | inactive | inactive | inactive |  |  |  | 
C=C[C@]1(C)C=C2CC[C@H]3C(C)(C)C[C@H](O)[C@H](O)[C@]3(C)[C@H]2[C@H](O)C1 | inactive | inactive | inactive |  |  |  | 
C=C[C@]1(C)C=C2C[C@@H](O)[C@H]3C(C)(C)CC[C@H](OC(C)=O)[C@]3(C)[C@H]2CC1 |  |  |  | 105% | 116% | 130% | 
C=C[C@]1(C)C=C2[C@H](OC(C)=O)[C@@H](O)[C@H]3C(C)(C)CCC[C@]3(C)[C@H]2CC1 |  |  |  | 96% | 114% | 127% | 
C=C[C@]1(C)C=C2CC[C@H]3C(C)(C)C[C@H](O)[C@H](O)[C@]3(C)[C@@]2(O)CC1 | inactive | inactive | inactive |  |  |  | 
C=C[C@]1(C)C=C2[C@H](OC(C)=O)C[C@H]3C(C)(C)CCC[C@]3(C)[C@@]2(O)CC1 | inactive | inactive | inactive |  |  |  | 
C=C[C@]1(C)C=C2[C@@H](O)C[C@H]3C(C)(C)CCC[C@]3(C)[C@@]2(O)CC1 | inactive | inactive | inactive |  |  |  | 
C=C[C@]1(C)C=C2C(=O)C[C@H]3C(C)(C)CCC[C@]3(C)[C@@]2(O)CC1 | inactive | inactive | inactive |  |  |  | 
C=C[C@]1(C)C=C2[C@@H](OC(C)=O)[C@@H](O)[C@H]3C(C)(C)CCC[C@]3(C)[C@@]2(O)CC1 | inactive | inactive | inactive |  |  |  | 
C=C[C@]1(C)C=C2C[C@@H](O)[C@H]3C(C)(C)[C@H](O)C[C@H](O)[C@]3(C)[C@H]2CC1 | inactive | inactive | inactive |  |  |  | 
C=C[C@]1(C)C=C2CC[C@H]3C(C)(C)[C@H](O)C[C@H](O)[C@]3(C)[C@H]2CC1 | inactive | inactive | inactive |  |  |  | 
C=C[C@@]1(C)CCC2=C(C[C@@H](O)[C@H]3C(C)(C)CC[C@H](O)[C@]23C)[C@H]1O | inactive | inactive | inactive |  |  |  | 
C=C[C@@]1(C)CCC2=C(C[C@@H](O)[C@H]3C(C)(C)CCC[C@]23C)[C@@H]1OC |  |  |  | 114% | 119% | 126% | 
C=C[C@@]1(C)CCC2=C(C[C@@H](O)[C@H]3C(C)(C)CCC[C@]23C)[C@@H]1O |  |  |  | 157% | 170% | 180% | 
C=C[C@]1(C)C=C2CC[C@H]3C(C)(C)CC[C@H](O)[C@]3(C)[C@H]2CC1 | inactive | inactive | inactive |  |  |  | 

Structure (SMILES) | inhibition (TREx-HeLa-Vpr [1]) | inhibition (TREx-HeLa-Vpr [2]) | inhibition (TREx-HeLa-Vpr [3]) | Cell viability (TREx-HeLa-Vpr [1]) | Activity (TREx-HeLa-Vpr [2]) | Activity (TREx-HeLa-Vpr [3]) | Activity (TREx-HeLa-Vpr [4])
C=C[C@@]1(C)CCC2=C(C[C@@H](O)[C@H]3C(C)(C)CC[C@H](O)[C@]23C)[C@@H]1OC | inactive | inactive | inactive |  |  |  | 
C=C[C@]1(C)C=C2[C@H](O)C[C@H]3C(C)(C)CCC[C@]3(C)[C@H]2CC1 | inactive | inactive | inactive |  |  |  | 
C=C[C@@]1(C)CCC2=C(C[C@@H](O)[C@H]3C(C)(C)CCC[C@]23C)C1=O |  |  |  | 98% | 106% | 114% | 
C=C[C@@]1(C)CCC2=C(C[C@@H](O)[C@H]3C(C)(C)CCC[C@]23C)[C@H]1O | inactive | inactive | inactive |  |  |  | 
C=C[C@]1(C)C=C2CC[C@H]3C(C)(C)C[C@H](O)[C@H](O)[C@]3(C)[C@H]2CC1 | inactive | inactive | inactive |  |  |  | 
COc1c(C=O)c(O)cc2c1C(=O)c1ccccc1C2=O |  |  |  |  |  |  | 137%
CCOC(=O)/C=C/c1ccc(OC)cc1 | inactive | inactive | inactive |  |  |  | 
C=C[C@]1(C)C=C2C[C@@H](O)[C@H]3C(C)(C)CCC[C@]3(C)[C@H]2CC1 | inactive | inactive | inactive |  |  |  | 
C=C[C@]1(C)C=C2C[C@@H](OC(C)=O)[C@H]3C(C)(C)CCC[C@]3(C)[C@@]2(O)CC1 | inactive | inactive | inactive |  |  |  | 
C=C[C@@]1(C)CCC2=C(CC[C@H]3C(C)(C)CCC[C@]23C)[C@H]1O |  |  |  | 104% | 106% | 116% | 
C=C[C@]1(C)C=C2C[C@@H](O)[C@H]3C(C)(C)CC[C@H](O)[C@]3(C)[C@H]2CC1 | inactive | inactive | inactive |  |  |  | 
C=C[C@]1(C)C=C2CC[C@H]3C(C)(C)CC[C@H](O)[C@]3(C)[C@H]2[C@H](O)C1 | inactive | inactive | inactive |  |  |  | 
C=C[C@]1(C)C=C2[C@@H](O)[C@@H](O)[C@H]3C(C)(C)CCC[C@]3(C)[C@@]2(O)CC1 |  |  |  | 96% | 111% | 130% | 
C=C[C@]1(C)C=C2C[C@@H](O)[C@H]3C(C)(C)CCC[C@]3(C)[C@@]2(OC)CC1 | inactive | inactive | inactive |  |  |  | 
C=C[C@]1(C)C=C2C(=O)C[C@H]3C(C)(C)CC[C@H](O)[C@]3(C)[C@H]2CC1 | inactive | inactive | inactive |  |  |  | 
C=C[C@@]1(C)CCC2=C(C[C@@H](O)[C@H]3C(C)(C)CCC[C@]23C)[C@H]1OC | inactive | inactive | inactive |  |  |  | 
